These results are taken from ChEMBL document CHEMBL1122740, “Bicyclic lactam inhibitors of angiotensin converting enzyme” (J Med Chem, 1984).

Each structure is given as a SMILES string. “And” between values parts separate entries of the source, which are not always exact repeats. Equal entries are not always repeated.

This assay deals with T1, Angiotensin-converting enzyme (Oryctolagus cuniculus, UniProt P12822).
T1 sequence (P12822 whole entry): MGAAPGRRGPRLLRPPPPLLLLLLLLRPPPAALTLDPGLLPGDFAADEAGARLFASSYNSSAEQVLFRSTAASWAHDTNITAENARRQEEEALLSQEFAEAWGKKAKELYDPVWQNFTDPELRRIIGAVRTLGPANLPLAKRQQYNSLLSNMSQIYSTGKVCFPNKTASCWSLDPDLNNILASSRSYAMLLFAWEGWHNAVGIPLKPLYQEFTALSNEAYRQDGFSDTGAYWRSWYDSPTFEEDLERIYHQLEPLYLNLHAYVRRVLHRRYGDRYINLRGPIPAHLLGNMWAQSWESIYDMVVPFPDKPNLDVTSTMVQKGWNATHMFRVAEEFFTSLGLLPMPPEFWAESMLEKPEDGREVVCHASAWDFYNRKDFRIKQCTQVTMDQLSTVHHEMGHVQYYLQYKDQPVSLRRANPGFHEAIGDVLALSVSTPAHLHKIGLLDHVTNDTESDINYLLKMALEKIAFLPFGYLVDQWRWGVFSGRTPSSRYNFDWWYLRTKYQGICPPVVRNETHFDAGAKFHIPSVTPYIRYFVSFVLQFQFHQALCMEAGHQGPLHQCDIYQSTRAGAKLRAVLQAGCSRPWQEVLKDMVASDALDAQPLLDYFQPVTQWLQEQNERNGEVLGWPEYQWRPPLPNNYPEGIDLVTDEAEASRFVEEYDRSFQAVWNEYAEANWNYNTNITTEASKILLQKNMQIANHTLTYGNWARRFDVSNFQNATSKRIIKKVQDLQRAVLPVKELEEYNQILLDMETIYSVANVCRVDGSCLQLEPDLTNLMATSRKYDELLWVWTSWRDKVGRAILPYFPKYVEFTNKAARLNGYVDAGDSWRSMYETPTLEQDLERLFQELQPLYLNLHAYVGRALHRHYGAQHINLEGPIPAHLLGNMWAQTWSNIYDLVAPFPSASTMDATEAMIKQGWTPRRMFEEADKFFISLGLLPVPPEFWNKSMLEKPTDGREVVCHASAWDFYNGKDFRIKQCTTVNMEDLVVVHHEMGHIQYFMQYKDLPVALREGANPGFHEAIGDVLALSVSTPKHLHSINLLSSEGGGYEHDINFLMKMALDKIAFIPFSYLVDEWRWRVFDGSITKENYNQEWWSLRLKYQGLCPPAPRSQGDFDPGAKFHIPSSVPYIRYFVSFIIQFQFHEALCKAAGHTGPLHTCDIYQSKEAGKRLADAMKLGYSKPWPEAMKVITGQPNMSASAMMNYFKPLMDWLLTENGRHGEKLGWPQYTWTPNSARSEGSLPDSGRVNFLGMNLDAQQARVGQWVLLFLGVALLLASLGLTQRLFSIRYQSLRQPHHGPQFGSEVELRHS
As to the kind of experiment: Ability to inhibit Angiotensin I converting enzyme was determined.
Take `O=C(O)CN1C(=O)C(CS)CCCc2ccccc21` (stereo not given): the IC50 was found to be 4 nM.
As to `O=C(O)CN1CCCCC(CS)C1=O` (stereo not given), the IC50 came to 170 nM.
As for `O=C(O)CN1CCCC(CS)C1=O` (stereo not given), the figure is 1500 nM and 3400 nM.
Turning to `CC(C(=O)O)N1CCCCCC(CS)C1=O` (stereo not given), the IC50 stood at 53 nM.
The figure for `O=C(O)CN1C(=O)C(CS)CCc2ccccc21` (stereo not given) is 9 nM.

In general, IC50 refers to the concentration that gives 50% inhibition. Read a high IC50 as a need for much substance.
